In US20200316056A1, “Pain Medicine Combination and Uses Thereof” (Mindlab, LLC, priority 2013, published 2020):
Values joined by “and” are separate entries in the source; they are usually repeats but may differ in a detail not shown here. Equal entries are not always repeated.

System: rats
Test: Ugo Basile Tail Flick method (Example 2)
Format: in vivo
Conditions: for Tail Flick Time (seconds) after administration: individual rats 1-7; for Tail Flick Time (seconds) after administration, Mean: mean of 7 rats; for Tail Flick Time (seconds) after administration, Median: median of 7 rats
Method: The addition of quinidine to a pharmaceutical composition of morphine, and dextromethorphan was tested using Ugo Basile Tail Flick method. This method is often used for in vivo screening of multiple drugs with analgesic activity. The animal was placed and held on the Ugo Basile Tail Flick instrument surface with the tail straight back and across an infrared light source. The heat source and timer are turned on by a foot pedal press, and automatically switch off when the animal flicks its tail off the emitter. Latency time is measured and analyzed as an analgesic effect. Each preparation was tested in 7 rats.

Compound	Tail Flick Time (seconds) after administration (1 h after administration)	Tail Flick Time (seconds) after administration, Mean (1 h after administration) [s]	Tail Flick Time (seconds) after administration, Median (1 h after administration) [s]	Tail Flick Time (seconds) after administration (3 h after administration)	Tail Flick Time (seconds) after administration, Mean (3 h after administration) [s]	Tail Flick Time (seconds) after administration, Median (3 h after administration) [s]	Tail Flick Time (seconds) after administration (5 h after administration)	Tail Flick Time (seconds) after administration, Mean (5 h after administration) [s]	Tail Flick Time (seconds) after administration, Median (5 h after administration) [s]	Tail Flick Time (seconds) after administration (8 h after administration)	Tail Flick Time (seconds) after administration, Mean (8 h after administration) [s]	Tail Flick Time (seconds) after administration, Median (8 h after administration) [s]	Tail Flick Time (seconds) after administration (10 h after administration)	Tail Flick Time (seconds) after administration, Mean (10 h after administration) [s]	Tail Flick Time (seconds) after administration, Median (10 h after administration) [s]	Tail Flick Time (seconds) after administration (14 h after administration)	Tail Flick Time (seconds) after administration, Mean (14 h after administration) [s]	Tail Flick Time (seconds) after administration, Median (14 h after administration) [s]	Tail Flick Time (seconds) after administration (24 h after administration)	Tail Flick Time (seconds) after administration, Mean (24 h after administration) [s]	other results
CN1CC[C@]23c4c5ccc(O)c4O[C@H]2[C@@H](O)C=C[C@H]3[C@H]1C5 [Morphine]	5.80 s and 5.10 s and 6.50 s and 30.10 s and 6.80 s and 10.50 s and 3.70 s	9.79	6.50	6.30 s and 7.60 s and 2.70 s and 9.50 s and 5.30 s and 5.90 s and 4.80 s	6.01	5.90	4.80 seconds and 6.60 seconds and 5.90 seconds and 10.90 seconds and 4.90 seconds and 4.60 seconds (2×)	6.04	4.90	6.90 s and 10.50 s and 8.30 s and 8.50 s and 6.70 s and 6.30 s and 3.50 s	7.24	6.90	4.70 s and 4.10 s and 4.80 s and 6.50 s and 6.20 s and 4.20 s and 2.90 s	4.77	4.70	3.50 seconds and 7.50 seconds and 5.10 seconds (2×) and 7.80 seconds and 2.90 seconds and 4.10 seconds	5.14	5.10	4.80 seconds (2×) and 7.60 seconds and 4.30 seconds and 3.40 seconds and 4.90 seconds and 6.10 seconds	5.13	Tail Flick Time (seconds) after administration, Median (1 h after administration, listed as morphine): 6.5 s; Tail Flick Time (seconds) after administration, Median (24 h after administration): 4.80 s
COc1ccc2c(c1)[C@]13CCCC[C@@H]1[C@H](C2)N(C)CC3 [Dextromethorphan]	4.10 s and 3.90 s and 3.30 s and 4.80 s and 5.60 s and 3.70 s and 7.30 s	4.67	4.10	3.90 seconds and 4.60 seconds (2×) and 4.50 seconds and 5.40 seconds and 3.30 seconds and 8.70 seconds	5.00	4.60	4.60 seconds and 6.40 seconds (2×) and 2.90 seconds and 5.10 seconds and 4.10 seconds and 4.50 seconds	4.86	4.60	5.40 s and 5.10 s and 3.70 s and 7.30 s and 4.30 s and 3.80 s and 3.60 s	4.74	4.30	3.10 seconds and 5.50 seconds and 4.30 seconds and 4.80 seconds (2×) and 3.90 seconds and 6.60 seconds	4.71	4.80	3.90 seconds (2×) and 5.20 seconds and 5.60 seconds and 3.80 seconds and 5.10 seconds and 4.10 seconds	4.51	4.10	3.50 seconds (2×) and 4.70 seconds and 4.30 seconds and 5.20 seconds and 3.70 seconds and 3.10 seconds	4.00	Tail Flick Time (seconds) after administration, Median (24 h after administration): 3.70 s
